Experimental data from patent publication US20060293307A1, “Oxazolidinone derivatives as antimicrobials” (priority 2002, published 2006).
Converted amounts (≈) assume the structure as drawn.

Columns and labels:
Salmonella 205 = test: MIC, agar incorporation method; format: cell-based; conditions: S. No. 26, Salmonella 205; read-out: MIC
Method: The compounds of the invention display antibacterial activity when tested by the agar incorporation method. The following minimum inhibitory concentrations (μg/ml) were obtained for representative compounds of the invention which are given below in the following tables.
Briefly, the compounds were dissolved in DMSO and doubling dilution of the compounds were incorporated into Meer Hilton agar before solidification. Inoculum was prepared by suspending 4 to 5 colonies into 5 ml of normal saline solution and adjusting the turbidity to 0.5 Macfarland turbidity standard tables (1.5×10^8 CFU/ml), after appropriate dilutions, 10^4 CFU/spot was transfered into the surface of dried plate and incubated for 18 hours (24 hours for MRSN studies). The concentration showing no growth of the inoculated culture was recorded as the MIC. Appropriate ATCC standard strains were simultaneously tested and result recorded only when the MIC's against standard antibiotics were within the acceptable range.

K. oxytoca 49131 = test: MIC, agar incorporation method; format: cell-based; conditions: Klebsiella oxytoca; S. No. 27, K. oxytoca 49131; read-out: MIC
S. pneumoniae AB 34 = test: MIC, agar incorporation method; format: cell-based, Streptococcus pneumoniae; conditions: Streptococcus pneumoniae, AB34; S. No. 49, S. pneumoniae AB 34; read-out: MIC
S. pyogenes 20361 = test: MIC, agar incorporation method; format: cell-based, Streptococcus pyogenes; conditions: Streptococcus pyogenes; S. No. 53, S. pyogenes 20361; read-out: MIC
S. aureus ATCC 25923 = test: MIC, agar incorporation method; format: cell-based, Staphylococcus aureus; conditions: Staphylococcus aureus, ATCC25923; S. No. 1, organism cell empty; read-out: MIC
S. pneumoniae AB-3 = test: MIC, agar incorporation method; format: cell-based, Streptococcus pneumoniae; conditions: Streptococcus pneumoniae, AB3; S. No. 32, S. pneumoniae AB-3; read-out: MIC
[1] = tested on: S. aureus (MRSA 33) Cipro R; test: MIC, agar incorporation method; format: cell-based, Staphylococcus aureus; conditions: Staphylococcus aureus; S. No. 7, S. aureus (MRSA 33) Cipro R; read-out: MIC
S. pneumoniae AB 31 = test: MIC, agar incorporation method; format: cell-based, Streptococcus pneumoniae; conditions: Streptococcus pneumoniae, AB31; S. No. 36, S. pneumoniae AB 31; read-out: MIC
S. pneumoniae AB 25 = test: MIC, agar incorporation method; format: cell-based, Streptococcus pneumoniae; conditions: Streptococcus pneumoniae, AB25; S. No. 45, S. pneumoniae AB 25; read-out: MIC
E. faecium 6A (VRE) = test: MIC, agar incorporation method; format: cell-based, Enterococcus faecium; conditions: Enterococcus faecium; S. No. 21, E. faecium 6A (VRE); read-out: MIC
S. pneumoniae AB 29 = test: MIC, agar incorporation method; format: cell-based, Streptococcus pneumoniae; conditions: Streptococcus pneumoniae, AB29; S. No. 46, S. pneumoniae AB 29; read-out: MIC
S. pneumoniae AB 22 = test: MIC, agar incorporation method; format: cell-based, Streptococcus pneumoniae; conditions: Streptococcus pneumoniae, AB22; S. No. 42, S. pneumoniae AB 22; read-out: MIC
S. pneumoniae AB 10 = test: MIC, agar incorporation method; format: cell-based, Streptococcus pneumoniae; conditions: Streptococcus pneumoniae, AB10; S. No. 35, S. pneumoniae AB 10; read-out: MIC
[2] = tested on: S. epidermidis (MRSE) 23760; test: MIC, agar incorporation method; format: cell-based, Staphylococcus epidermidis; conditions: Staphylococcus epidermidis; S. No. 11, S. epidermidis (MRSE) 23760; read-out: MIC
H. influenzae 23 = test: MIC against Haemophilus strains; format: cell-based; conditions: Haemophilus influenzae; s. No. 5, H. influenzae 23; read-out: MIC
S. pneumoniae AB 14 = test: MIC, agar incorporation method; format: cell-based, Streptococcus pneumoniae; conditions: Streptococcus pneumoniae, AB14; S. No. 37, S. pneumoniae AB 14; read-out: MIC
P. aeruginosa ATCC 27853 = test: MIC, agar incorporation method; format: cell-based; conditions: Pseudomonas aeruginosa, ATCC27853; S. No. 28, P. aeruginosa ATCC 27853; read-out: MIC
S pneumoniae 1294. = test: MIC, agar incorporation method; format: cell-based, Streptococcus pneumoniae; conditions: Streptococcus pneumoniae; S. No. 55, S pneumoniae 1294.; read-out: MIC
E. faecalis SP 346 (VRE) = test: MIC, agar incorporation method; format: cell-based; conditions: Enterococcus faecalis; S. No. 20, E. faecalis SP 346 (VRE); read-out: MIC
S. pneumoniae CS1221 = test: MIC, agar incorporation method; format: cell-based, Streptococcus pneumoniae; conditions: Streptococcus pneumoniae; S. No. 34, S. pneumoniae CS1221; read-out: MIC
S. pneumoniae CS 1687 = test: MIC, agar incorporation method; format: cell-based, Streptococcus pneumoniae; conditions: Streptococcus pneumoniae, CS1687; S. No. 44, S. pneumoniae CS 1687; read-out: MIC

Row | SMILES | MIC (Salmonella 205) | MIC (K. oxytoca 49131) | MIC (S. pneumoniae AB 34) | MIC (S. pyogenes 20361) | MIC (S. aureus ATCC 25923) | MIC (S. pneumoniae AB-3) | MIC [1] | MIC (S. pneumoniae AB 31) | MIC (S. pneumoniae AB 25) | MIC (E. faecium 6A (VRE)) | MIC (S. pneumoniae AB 29) | MIC (S. pneumoniae AB 22) | MIC (S. pneumoniae AB 10) | MIC [2] | MIC (S. pneumoniae AB 14) | MIC (P. aeruginosa ATCC 27853) | MIC (S pneumoniae 1294.) | MIC (E. faecalis SP 346 (VRE)) | MIC (S. pneumoniae CS1221) | MIC (S. pneumoniae CS 1687) | further results
1 | CC(=O)NC[C@H]1CN(c2ccc(N3CCN(c4ccc(C=O)s4)CC3)c(F)c2)C(=O)O1 [Compound No. 2, (S)—N-[[3-[3-Fluoro-4-[4-(5-formyl-2-thienyl)-1-piperazinyl]phenyl]-2-oxo-5-oxazolidinyl]methyl]acetamide] | > 16 µg/mL | > 16 µg/mL | 0.5 µg/mL (≈ 1.12 µM) | 0.5 µg/mL (≈ 1.12 µM) | 1 µg/mL (≈ 2.24 µM) | < 0.25 µg/mL | 0.5 µg/mL (≈ 1.12 µM) | 0.5 µg/mL (≈ 1.12 µM) | < 0.25 µg/mL | 1 µg/mL (≈ 2.24 µM) | < 0.25 µg/mL | 0.5 µg/mL (≈ 1.12 µM) | < 0.25 µg/mL | < 0.25 µg/mL | < 0.25 µg/mL | > 16 µg/mL | 0.5 µg/mL (≈ 1.12 µM) | 0.5 µg/mL (≈ 1.12 µM) | 0.5 µg/mL (≈ 1.12 µM) | 0.5 µg/mL (≈ 1.12 µM) | MIC (H. influenzae 23): > 16 µg/mL
2 | CC(=O)NC[C@H]1CN(c2ccc(N3CCN(c4ccc(C=O)o4)CC3)c(F)c2)C(=O)O1 [Compound No. 3, (S)—N-[[3-[3-Fluoro-4-[4-(5-formyl-2-furyl)-1-piperazinyl]phenyl]-2-oxo-5-oxazolidinyl]methyl]acetamide] | > 16 µg/mL | > 16 µg/mL | 0.25 µg/mL (≈ 0.581 µM) | 0.25 µg/mL (≈ 0.581 µM) | 1 µg/mL (≈ 2.32 µM) | 0.25 µg/mL (≈ 0.581 µM) | 0.5 µg/mL (≈ 1.16 µM) | 0.25 µg/mL (≈ 0.581 µM) | 0.25 µg/mL (≈ 0.581 µM) | 0.5 µg/mL (≈ 1.16 µM) | 0.25 µg/mL (≈ 0.581 µM) | 0.25 µg/mL (≈ 0.581 µM) | < 0.125 µg/mL | 0.25 µg/mL (≈ 0.581 µM) | < 0.125 µg/mL | > 16 µg/mL | 0.25 µg/mL (≈ 0.581 µM) | 0.5 µg/mL (≈ 1.16 µM) | 0.25 µg/mL (≈ 0.581 µM) | 0.25 µg/mL (≈ 0.581 µM) | MIC (H. influenzae 23): 8 µg/mL (≈ 18.6 µM)
3 | CC(=O)NC[C@H]1CN(c2ccc(N3CCN(c4ccc([N+](=O)[O-])o4)CC3)c(F)c2)C(=O)O1 [Compound No. 4, (S)—N-[[3-[3-Fluoro-4-[4-(5-nitro-2-furyl)-1-piperazinyl]phenyl]-2-oxo-5-oxazolidinyl]methyl]acetamide] | > 16 µg/mL | > 16 µg/mL | 4 µg/mL (≈ 8.94 µM) | 4 µg/mL (≈ 8.94 µM) | 16 µg/mL (≈ 35.8 µM) | 8 µg/mL (≈ 17.9 µM) | 8 µg/mL (≈ 17.9 µM) | 8 µg/mL (≈ 17.9 µM) | 4 µg/mL (≈ 8.94 µM) | 8 µg/mL (≈ 17.9 µM) | 4 µg/mL (≈ 8.94 µM) | 8 µg/mL (≈ 17.9 µM) | 4 µg/mL (≈ 8.94 µM) | 4 µg/mL (≈ 8.94 µM) | 2 µg/mL (≈ 4.47 µM) | > 16 µg/mL | 8 µg/mL (≈ 17.9 µM) | 8 µg/mL (≈ 17.9 µM) | 8 µg/mL (≈ 17.9 µM) | 4 µg/mL (≈ 8.94 µM) | –
